Results as given in US20250197369A1, “NOVEL HETEROCYCLIC INHIBITOR FOR HISTONE DEACETYLASE, AND PHARMACEUTICAL COMPOSITION COMPRISING SAME” (SOOKMYUNG WOMEN'S UNIVERSITY INDUSTRY-ACADEMIC COOPERATION …, priority 2022, published 2025).

Assays:
MS (in mouse) = format: in vitro ADME; set-up: unit not given here
MS (in human) = format: in vitro ADME; set-up: unit not given here
HDAC6 = HDAC6 (Homo sapiens (Human), UniProt Q9UBN7); assay: HDAC6 inhibitory activity (fluorogenic HDAC substrate); format: biochemical; settings: culture 30° C. for 1 hour
Method: (§1) 2×HDAC enzymes were dispensed in each well of the reaction plate except for the control well without HDAC enzyme, and buffer was dispensed in the control well without the enzyme. Using acoustic technology (Echo550, nanoliter range), compounds dissolved in 100% DMSO were added to the enzyme mixture, spun down, and pre-cultured at room temperature for 10 minutes. All reaction wells were placed with a 2× substrate mixture (fluorogenic HDAC substrate) to initiate the reaction and then spun down. Culture was performed at 30° C. for 1 hour for HDAC6 and 2 hours for HDAC8.
(§2) Afterwards, a developer was added along with trichostatin A to halt the reaction and develop fluorescence. Dynamics measurements were performed with Envision (Ex/Em=360/460 nm) for 20 minutes with 5-minute intervals, and values from endpoint reading were taken for analysis after the phenomenon reached a plateau.

HDAC8 = HDAC8 (Homo sapiens (Human), UniProt Q9BY41); assay: HDAC8 inhibitory activity (fluorogenic HDAC substrate); format: biochemical; settings: culture 30° C. for 2 hours
Method: as §1, §2

Sequence of HDAC8 (Q9BY41 whole entry, species assumed): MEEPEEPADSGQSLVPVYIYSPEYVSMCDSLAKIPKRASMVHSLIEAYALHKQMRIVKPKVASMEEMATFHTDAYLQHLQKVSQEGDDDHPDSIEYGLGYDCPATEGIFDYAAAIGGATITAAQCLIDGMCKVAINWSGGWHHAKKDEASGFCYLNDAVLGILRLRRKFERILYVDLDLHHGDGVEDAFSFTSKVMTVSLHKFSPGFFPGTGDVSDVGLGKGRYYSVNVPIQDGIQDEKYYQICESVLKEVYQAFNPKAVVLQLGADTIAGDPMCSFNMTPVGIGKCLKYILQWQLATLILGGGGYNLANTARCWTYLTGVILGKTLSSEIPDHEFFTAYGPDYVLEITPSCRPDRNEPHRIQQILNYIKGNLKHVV
Sequence of HDAC6 (Q9UBN7 whole entry): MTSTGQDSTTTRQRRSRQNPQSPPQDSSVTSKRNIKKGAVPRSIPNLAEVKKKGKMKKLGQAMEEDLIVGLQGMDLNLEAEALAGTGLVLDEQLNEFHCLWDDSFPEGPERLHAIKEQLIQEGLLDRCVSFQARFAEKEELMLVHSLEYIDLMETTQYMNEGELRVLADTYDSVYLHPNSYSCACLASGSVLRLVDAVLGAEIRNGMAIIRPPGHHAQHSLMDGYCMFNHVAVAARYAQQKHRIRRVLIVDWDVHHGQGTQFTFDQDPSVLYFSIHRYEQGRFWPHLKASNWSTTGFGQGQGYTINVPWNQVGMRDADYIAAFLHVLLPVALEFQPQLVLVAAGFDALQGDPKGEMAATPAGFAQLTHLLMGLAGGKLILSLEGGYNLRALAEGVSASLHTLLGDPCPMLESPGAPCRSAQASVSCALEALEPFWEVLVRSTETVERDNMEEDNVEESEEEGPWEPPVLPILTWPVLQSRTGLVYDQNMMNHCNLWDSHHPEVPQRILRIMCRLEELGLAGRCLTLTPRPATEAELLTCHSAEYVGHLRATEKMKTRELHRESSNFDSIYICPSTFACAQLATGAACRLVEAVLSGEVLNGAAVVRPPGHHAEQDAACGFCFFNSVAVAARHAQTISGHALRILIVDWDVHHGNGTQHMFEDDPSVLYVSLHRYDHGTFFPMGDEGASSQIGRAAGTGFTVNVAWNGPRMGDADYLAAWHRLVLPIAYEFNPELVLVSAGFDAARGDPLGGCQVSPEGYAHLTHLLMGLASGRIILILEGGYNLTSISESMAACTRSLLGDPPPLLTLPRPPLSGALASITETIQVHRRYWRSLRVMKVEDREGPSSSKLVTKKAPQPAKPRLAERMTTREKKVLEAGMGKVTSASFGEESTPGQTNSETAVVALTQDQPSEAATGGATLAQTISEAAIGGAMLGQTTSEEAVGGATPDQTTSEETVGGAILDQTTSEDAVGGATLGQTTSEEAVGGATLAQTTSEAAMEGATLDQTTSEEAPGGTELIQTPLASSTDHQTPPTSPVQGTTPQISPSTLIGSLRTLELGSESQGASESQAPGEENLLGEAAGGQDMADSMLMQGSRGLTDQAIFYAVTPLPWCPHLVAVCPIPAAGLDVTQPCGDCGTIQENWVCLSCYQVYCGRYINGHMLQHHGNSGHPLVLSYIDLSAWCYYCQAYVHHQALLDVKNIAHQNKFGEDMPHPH

**Q.** Which results are given for `O=C(NO)c1ccc2cn(Cc3ccccc3)nc2c1` [Compound 50, 2-Benzyl-2H-indazole-6-carboxylic acid hydroxyamide]?
**A.** MS (in mouse) (MS (in mouse)): 79.3; MS (in human) (MS (in human)): 97.6; IC50 (HDAC6): 2.6 nM; IC50 (HDAC8): 1320 nM

**Q.** Which results are given for `COc1ccc(Cn2cc3ccc(C(=O)NO)cc3n2)cc1` [Compound 51, 2-(4-Methoxybenzyl)-2H-indazole-6-carboxylic acid hydroxyamide]?
**A.** MS (in mouse) (MS (in mouse)): 98.6; MS (in human) (MS (in human)): 76.7; IC50 (HDAC6): 5.4 nM; IC50 (HDAC8): 765 nM

**Q.** With `Cc1ccc(Cn2cc3ccc(C(=O)NO)cc3n2)cc1` [Compound 52, 2-(4-Methylbenzyl)-2H-indazole-6-carboxylic acid hydroxyamide] as the molecule, how does the IC50 (HDAC6) read?
**A.** Its IC50 is 7.4 nM.

**Q.** What about the IC50 (HDAC8) of the same molecule?
**A.** Its IC50 is 699 nM.

**Q.** For `O=C(NO)c1ccc2cn(Cc3ccc(F)cc3)nc2c1` [Compound 53, 2-(4-Fluorobenzyl)-2H-indazole-6-carboxylic acid hydroxyamide], which “MS (in mouse)” value (MS (in mouse)) is on record?
**A.** Its value is 71.3.

**Q.** What about the “MS (in human)” value (MS (in human)) of the same molecule?
**A.** Its value is 85.9.

**Q.** And the IC50 (HDAC6)?
**A.** Its IC50 is 5.9 nM.

**Q.** And the IC50 (HDAC8)?
**A.** The IC50 was 932 nM.

**Q.** Which results are given for `O=C(NO)c1ccc2cn(Cc3ccc(Cl)cc3)nc2c1` [Compound 54, 2-(4-Chlorobenzyl)-2H-indazole-6-carboxylic acid hydroxyamide]?
**A.** MS (in mouse) (MS (in mouse)): 40.8; MS (in human) (MS (in human)): 49.3; IC50 (HDAC6): 2.7 nM; IC50 (HDAC8): 776 nM

**Q.** For `O=C(NO)c1ccc2cn(Cc3ccc(Br)cc3)nc2c1` [Compound 55, 2-(4-Bromobenzyl)-2H-indazole-6-carboxylic acid hydroxyamide], which IC50 (HDAC6) is on record?
**A.** Its IC50 is 3.4 nM.

**Q.** And the IC50 (HDAC8)?
**A.** Its IC50 is 593 nM.

**Q.** With `O=C(NO)c1ccc2cn(Cc3cccc(OC(F)(F)F)c3)nc2c1` [Compound 56, 2-(3-Trifluoromethoxybenzyl)-2H-indazole-6-carboxylic acid hydroxyamide] as the molecule, how does the IC50 (HDAC6) read?
**A.** The IC50 was 4.4 nM.

**Q.** And the IC50 (HDAC8)?
**A.** The IC50 was 1020 nM.

**Q.** What does the source list for `O=C(NO)c1ccc2cn(Cc3ccc(OC(F)(F)F)cc3)nc2c1` [Compound 57, 2-(4-Trifluoromethoxybenzyl)-2H-indazole-6-carboxylic acid hydroxyamide]?
**A.** IC50 (HDAC6): 5.5 nM; IC50 (HDAC8): 1070 nM

**Q.** What does the source list for `O=C(NO)c1ccc2cn(Cc3ccc4ccccc4c3)nc2c1` [Compound 58, 2-Naphthalen-2-ylmethyl-2H-indazole-6-carboxylic acid hydroxyamide]?
**A.** IC50 (HDAC6): 4.2 nM; IC50 (HDAC8): 870 nM

**Q.** Which IC50 (HDAC6) does the source give for `O=C(NO)c1ccc2cn(CCc3ccccc3)nc2c1` [Compound 59, 2-Phenethyl-2H-indazole-6-carboxylic acid hydroxyamide] here?
**A.** Its IC50 is 4 nM.

**Q.** And the IC50 (HDAC8)?
**A.** The IC50 was 1170 nM.

**Q.** For `COc1ccc(CCn2cc3ccc(C(=O)NO)cc3n2)cc1` [Compound 60, 2-(2-4-Methoxyphenylethyl)-2H-indazole-6-carboxylic acid hydroxyamide], which IC50 (HDAC6) is on record?
**A.** The IC50 was 4.7 nM.

**Q.** What about the IC50 (HDAC8) of the same molecule?
**A.** Its IC50 is 1100 nM.

**Q.** What does the source list for `O=C(NO)c1ccc2cn(Cc3cc(F)cc(F)c3)nc2c1` [Compound 61, 2-(3,5-Difluorobenzyl)-2H-indazole-6-carboxylic acid hydroxyamide]?
**A.** IC50 (HDAC6): 3.9 nM; IC50 (HDAC8): 877 nM

**Q.** Which IC50 (HDAC6) does the source give for `O=C(NO)c1ccc2cn(Cc3ccc(OC(F)F)cc3)nc2c1` [Compound 62, 2-(4-Difluoromethoxybenzyl)-2H-indazole-6-carboxylic acid hydroxyamide] here?
**A.** The IC50 was 4.1 nM.

**Q.** And the IC50 (HDAC8)?
**A.** The IC50 was 500 nM.

**Q.** Which results are given for `O=C(NO)c1ccc2cn(Cc3ccc(-c4ccccc4)cc3)nc2c1` [Compound 63, 2-Biphenyl-4-ylmethyl-2H-indazole-6-carboxylic acid hydroxyamide]?
**A.** IC50 (HDAC6): 3.6 nM; IC50 (HDAC8): 1290 nM

**Q.** With `CC(C)c1ccc(Cn2cc3ccc(C(=O)NO)cc3n2)cc1` [Compound 64, 2-(4-Isopropylbenzyl)-2H-indazole-6-carboxylic acid hydroxyamide] as the molecule, how does the IC50 (HDAC6) read?
**A.** The IC50 was 29.3 nM.

**Q.** What about the IC50 (HDAC8) of the same molecule?
**A.** Its IC50 is 2860 nM.

**Q.** Which IC50 (HDAC6) does the source give for `O=C(NO)c1ccc2cn(CCc3ccc(F)cc3)nc2c1` [Compound 65, 2-(2-4-Fluorophenylethyl)-2H-indazole-6-carboxylic acid hydroxyamide] here?
**A.** The IC50 was 6.7 nM.

**Q.** And the IC50 (HDAC8)?
**A.** Its IC50 is 1520 nM.

**Q.** What does the source list for `O=C(NO)c1ccc2cn(Cc3cccc(F)c3)nc2c1` [Compound 66, 2-(3-Fluorobenzyl)-2H-indazole-6-carboxylic acid hydroxyamide]?
**A.** IC50 (HDAC6): 1.8 nM; IC50 (HDAC8): 1130 nM

**Q.** With `O=C(NO)c1ccc2cn(Cc3cccc(Cl)c3)nc2c1` [Compound 67, 2-(3-Chlorobenzyl)-2H-indazole-6-carboxylic acid hydroxyamide] as the molecule, how does the IC50 (HDAC6) read?
**A.** The IC50 was 1.3 nM.

**Q.** And the IC50 (HDAC8)?
**A.** Its IC50 is 8390 nM.

**Q.** For `O=C(NO)c1ccc2cn(Cc3cccc(C(F)(F)F)c3)nc2c1` [Compound 68, 2-(3-Trifluoromethylbenzyl)-2H-indazole-6-carboxylic acid hydroxyamide], which IC50 (HDAC6) is on record?
**A.** The IC50 was 3.3 nM.

**Q.** And the IC50 (HDAC8)?
**A.** The IC50 was 738 nM.

**Q.** Which results are given for `O=C(NO)c1ccc2cn(Cc3ccc(C(F)(F)F)cc3)nc2c1` [Compound 69, 2-(4-Trifluoromethylbenzyl)-2H-indazole-6-carboxylic acid hydroxyamide]?
**A.** IC50 (HDAC6): 3 nM; IC50 (HDAC8): 598 nM

**Q.** With `COc1cccc(Cn2cc3ccc(C(=O)NO)cc3n2)c1` [Compound 70, 2-(3-Methoxybenzyl)-2H-indazole-6-carboxylic acid hydroxyamide] as the molecule, how does the IC50 (HDAC6) read?
**A.** Its IC50 is 1.8 nM.

**Q.** What about the IC50 (HDAC8) of the same molecule?
**A.** The IC50 was 967 nM.

**Q.** Which IC50 (HDAC6) does the source give for `O=C(NO)c1ccc2cn(Cc3cccc(OCc4ccccc4)c3)nc2c1` [Compound 71, 2-(3-Benzyloxybenzyl)-2H-indazole-6-carboxylic acid hydroxyamide] here?
**A.** The IC50 was 13.5 nM.

**Q.** And the IC50 (HDAC8)?
**A.** The IC50 was 2120 nM.

**Q.** What does the source list for `COc1cc(Cn2cc3ccc(C(=O)NO)cc3n2)cc(OC)c1` [Compound 72, 2-(3,5-Dimethoxybenzyl)-2H-indazole-6-carboxylic acid hydroxyamide]?
**A.** IC50 (HDAC6): 3.8 nM; IC50 (HDAC8): 814 nM

**Q.** Which IC50 (HDAC6) does the source give for `O=C(NO)c1ccc2cn(Cc3cccc(Oc4ccccc4)c3)nc2c1` [Compound 73, 2-(3-Phenoxybenzyl)-2H-indazole-6-carboxylic acid hydroxyamide] here?
**A.** The IC50 was 22.8 nM.

**Q.** And the IC50 (HDAC8)?
**A.** Its IC50 is 2000 nM.

**Q.** Which IC50 (HDAC6) does the source give for `O=C(NO)c1cc2nn(Cc3ccccc3)cc2cc1F` [Compound 88, 2-Benzyl-5-fluoro-2H-indazole-6-carboxylic acid hydroxyamide] here?
**A.** The IC50 was 74.3 nM.

**Q.** And the IC50 (HDAC8)?
**A.** Its IC50 is 3840 nM.

**Q.** Which IC50 (HDAC6) does the source give for `O=C(NO)c1cc2nn(Cc3cccc(Cl)c3)cc2cc1F` [Compound 89, 2-(3-chlorobenzyl)-5-fluoro-2H-indazole-6-carboxylic acid hydroxyamide] here?
**A.** The IC50 was 30.3 nM.

**Q.** And the IC50 (HDAC8)?
**A.** Its IC50 is 2370 nM.

**Q.** Which IC50 (HDAC6) does the source give for `COc1cccc(Cn2cc3cc(F)c(C(=O)NO)cc3n2)c1` [Compound 90, 2-(3-Methoxybenzyl)-5-fluoro-2H-indazole-6-carboxylic acid hydroxyamide] here?
**A.** Its IC50 is 75.4 nM.

**Q.** And the IC50 (HDAC8)?
**A.** Its IC50 is 2850 nM.
